One data set deals with human plasma. Briefly: Activated partial thromboplastin time (aPTT) in human plasma. It counts as biochemical.
The next data set concerns the target T1, bovine thrombin (Bos taurus, UniProt P00735).
T1 construct: purchased Sigma Diagnostics, St. Louis, Mo
Briefly: Thrombin clotting time in human plasma. It counts as biochemical.

Data set [1] deals with human platelets.
Description: (§1) Human platelet-rich plasma (PRP) is prepared by centrifugation at 200 g-forces for 10 min. at room temperature. Platelet poor plasma (PPP) is prepared by centrifugation at 2,000 g-forces for 10 min. PRP is exposed only to plastic laboratory ware. All experiments are completed within 3 hours of blood collection. Platelet aggregation is measured photometrically using a dual channel aggregometer (Chrono-log Corp., Haverstown, Pa. 19083). One hundred percent light transmission is defined with autologus PPP. Percent maximal change in light transmission is determined from PRP following addition of ADP (1 μM) or thrombin. Thrombin (0.2-2.0 Units/ml)-induced platelet aggregation is concentration dependent and the half-maximal concentration is used for inhibition studies. Peptide 2 (SEQ ID NO: 2) is incubated with PRP (0.45 ml) for 30 seconds prior to the addition of ADP or thrombin. Aggregation is measured in a total volume of 0.5 ml. Inhibitory responses are expressed as percent inhibition when compared to a control value. The concentration resulting in 50% inhibition of aggregation. (IC50) is calculated by simple linear regression.
(§2) Human platelet-rich plasma (PRP) is prepared by centrifugation at 200 g-forces for 10 min. room temperature. Platelet poor plasma (PPP) is prepared by centrifugation at 2,000 g-forces for 10 min. PRP is exposed only to plastic laboratory ware. All experiments are completed within 3 hours of blood collection. Platelet aggregation is measured photometrically using a Chrono-log dual channel aggregometer (Chrono-log Corp., Haverstown, Pa. 19083). One hundred percent light transmission is defined with autologus PPP. Percent maximal change in light transmission is determined from PRP following addition of ADP (1 μM) or thrombin. Thrombin (0.2-2.0 Units/ml)-induced platelet aggregation is concentration dependent and the half-maximal concentration is used for inhibition studies. Peptide 1 (SEQ ID NO: 1) is incubated with PRP (0.45 ml) for 30 seconds prior to the addition of ADP or thrombin. Aggregation is measured in a total volume of 0.5 ml. Inhibitory responses are expressed as percent inhibition when compared to a control value. The concentration resulting in 50% inhibition of aggregation (IC50) is calculated by simple linear regression.
Data set [2] has as its system human platelets. The source holds these as a separate data set.
Description: as §1, §2
The test system of data set [3] is human whole blood platelets. As to conditions: read-out: IC50 whole blood platelet aggregation, ADP (0.5 μM) and thrombin (0.025 U/ml).
Description: (§3) Platelet aggregation in blood is performed in saline diluted (1:2) citrated blood using a whole blood aggregomenter (Chrono-log, model 540-VS). Aliquots of diluted blood are placed in plastic cuvettes and incubated at 37° C. for 15 min. Addition of ADP (2 μM) or thrombin (0.4 U/ml) is used to induce aggregation and the change in electrical impedance is registered on a strip chart recorder. Aggregation is measured in a total blood volume of 1.0 ml. Inhibitory responses are expressed as percent inhibition when compared to a control value. The concentration resulting in 50% inhibition of aggregation (IC50) is calculated by simple linear regression.
Data set [4] concerns rat whole blood platelets. As to conditions: read-out: IC50 whole blood platelet aggregation, ADP (0.5 μM) and thrombin (0.025 U/ml).
Description: as §3
The conditions of data set [5]: dog, in vivo.
Description: (§4) Dogs are anesthetized with sodium pentobarbital (30 mg/kg, i.v.). The femoral artery and both femoral veins are isolated and cannulated for the recording of blood pressure (Gould P23ID, Gould Inc., Medical Products Division, Oxnard, Calif. 93030), blood sampling, and drug administration. Limb leads are placed subcutaneously for monitoring of lead II ECG. Blood pressure and ECG measurements are recorded (Gould 440 recorder, Gould Inc., Instrument Systems Division, Cleveland, Ohio 44114).
Template bleeding times are performed on the median surface of the left leg after the hair has been removed (Nair, Carter-Wallace, Inc., New York, N.Y. 10105) using a Surgicutt® bleeding time device (International Technidyne Corp., Edison, N.J. 08820). Template bleeding times are determined 60 and 30 min before administration of the drug, 15, 30, 60, 120, 180 and 240 min after drug administration.
Whole blood cell counts and analysis of the hemoglobin content are determined on a 140 μL blood sample anticoagulated with EDTA processed with a hematology analyzer (Technicon El, Miles Technicon, Tarrytown, N.Y. 10591). Samples were taken at 60 and 30 min before administration of the drug, 15, 30, 60, 120, 180 and 240 min after drug administration.
The test system of a further data set is dog platelets. Briefly: Intravenous infusion in anesthetized dogs: platelet aggregation. As to conditions: after 1 nmol/kg/min infusion is stopped.
The next data set has as its system thrombin. Briefly: Intravenous infusion in anesthetized dogs: thrombin time and aPTT.

Like-named read-outs stand apart in the source and are kept apart here. Bridge positions count the residues as written; N and C are the ends. Square brackets hold non-standard residues; d marks the D form. Ends that are not written are not given here. Peptide text beside a SMILES is read from it. Cha = N[C@@H](CC1CCCCC1)C(=O)O; Nle = CCCC[C@H](N)C(=O)O Bounds are passed on as bounds.

Description for bovine thrombin: Activated partial thromboplastin time (aPTT) determinations are carried out using the reagents and methods of Dade Diagnostics, Inc. (Aguada, Puerto Rico 00602). Thrombin clotting times are determined by incubating 0.1 ml of rat plasma at 37° C. with 0.1 ml of 0.1M Tris buffer, pH 7.5 for 30 seconds. Coagulation is started with 0.1 ml of bovine thrombin (Sigma Diagnostics, St. Louis, Mo. 63178) solution (12 NIH units/ml). All clotting times are measured semiautomatically using a MLA-Electra 750 automatic coagualation timer, MLA, Inc. (Pleasantville, N.Y. 10570). The concentration required for doubling the clotting time (ID2) is calculated using simple linear regression.
Activated partial thromboplastin time (aPTT) determinations are carried out using the reagents and methods of Dade Diagnostics, Inc. (Aguada, Puerto Rico 0602). Thrombin clotting times are determined by incubating 0.1 ml of rat plasma at 37° C. with 0.1 ml of 0.1M Tris buffer, pH 7.5 for 30 seconds. Coagulation is started with 0.1 ml of bovine thrombin (Sigma Diagnostics, St. Louis, Mo. 63178) solution (12 NIH units/ml). All clotting times are measured semiautomatically using a MLA-Electra 750 automatic coagualation timer, MLA, Inc. (Pleasantville, N.Y. 10570). The concentration required for doubling the clotting time (ID2) is calculated using simple linear regression.
Description for dog platelets: as §4, §3

Turning to “fPRPGCGRGD(Nle)PCGDYEPIPEEAYD [Peptide 4, reference compound]”, in the data set on human plasma (aPTT and thrombin time), the “anticoagulant activity (in words)” value is “less anticoagulant activity than Peptide 2”. For the same molecule, in the data set on human plasma (concentration doubling clotting time), the “ID2 aPTT” value was 115 ± 24 nM. Also, in the data set with bovine thrombin (human plasma, concentration doubling clotting time), the “ID2 Thrombin Time” value was determined as 14 ± 3 nM. For the same molecule, the “inhibition of ADP-induced platelet aggregation (in words)” value in the data set on human platelets [1] (human platelets) is listed as “approximately equivalent to Peptide 1”. In addition, the IC50 in the data set with human platelets [1] (read-out: IC50 inhibition of platelet aggregation, ADP, human PRP, ADP-induced) is 35.9 ± 0.5 µM; with human platelets [2] (read-out: IC50 Thrombin, human PRP, thrombin-induced), 0.408 ± 0.18 µM. Moreover, the “fold less active than Peptide 1, thrombin-induced platelet aggregation” value in the data set with human platelets [2] (human platelets) is listed as “approximately 1,000 fold”.

Take `CN[C@H](Cc1ccccc1)C(=O)N1CCC[C@H]1C(=O)N[C@@H](CCCNC(=N)N)C(=O)O` [Peptide 2d, (CH3)fPR, reference compound]: the IC50 with human platelets [1] (3 h) is over 1000 µM; in the data set with human platelets [2] (3 h), 0.2 µM.

On to “fPRPGcvRGD(Nle)PcGDYEPIPEEA(Cha)e ([dF]PRPG[dC][dV]RGD[Nle]P[dC]GDYEPIPEEA[Cha][dE]; disulfide 6-13 (inferred)) [Peptide 11]”, for which the “Relative activity vs Peptide 1: Coagulation aPTT” value in the data set with human plasma (ratio to Peptide 1 (ID2 27.9 nM), 1 = as active as Peptide 1) was found to be 0.37. Further, in the data set with bovine thrombin (ratio to Peptide 1 (ID2 15 nM), 1 = as active as Peptide 1), the “Relative activity vs Peptide 1: Coagulation Thrombin Time” value worked out at 0.86. The “Relative activity vs Peptide 1: Aggregation Thrombin” value in the data set on human platelets [2] (ratio to Peptide 1 (IC50 5.8 nM), 1 = as active as Peptide 1) was 0.13.

Turning to `CCCC[C@@H]1NC(=O)[C@H](CC(=O)O)NC(=O)CNC(=O)[C@H](CCCNC(=N)N)NC(=O)CNC(=O)[C@H](NC(=O)CNC(=O)[C@@H]2CCCN2C(=O)[C@H](CCCNC(=N)N)NC(=O)[C@@H]2CCCN2C(=O)[C@H](N)Cc2ccccc2)CSSC[C@H](C(=O)NCC(=O)N[C@@H](CC(=O)O)C(=O)N[C@@H](Cc2ccc(O)cc2)C(=O)N[C@@H](CCC(=O)O)C(=O)N2CCC[C@H]2C(=O)N[C@H](C(=O)N2CCC[C@H]2C(=O)N[C@@H](CCC(=O)O)C(=O)N[C@@H](CCC(=O)O)C(=O)N[C@@H](C)C(=O)N[C@@H](CC2CCCCC2)C(=O)N[C@H](CCC(=O)O)C(=O)O)[C@@H](C)CC)NC(=O)[C@@H]2CCCN2C1=O` [Peptide 1, fPRPGcGRGD(Nle)PcGDYEPIPEEA(Cha)e] (H-[dF]PRPG[dC]GRGD[Nle]P[dC]GDYEPIPEEA[Cha][dE]-OH; disulfide 6-13), the IC50 in the data set with human platelets [1] (3 h) turned out to be 11.4 µM; in data set [3], 0.0029 µM; in data set [4], 0.0425 µM. Also, the “time after infusion ends at which blood pressure and heart rate return to baseline control values” in data set [5] was 2 h. In addition, the “pharmacodynamic t1/2, restoration of platelet activity” value in the data set on dog platelets was determined as 12.8 ± 1.1 min. The entries for the “pharmacodynamic t1/2, restoration of thrombin activity” value in the data set on thrombin (after 1 hr infusion of 1 nmol/kg/min) and in the data set with thrombin (after 1 hr infusion of 5 nmol/kg/min) were 17 ± 0.1 min and 26 ± 3.2 min, respectively.

Turning to `CC[C@H](C)[C@H](NC(=O)[C@@H]1CCCN1C(=O)[C@H](CCC(=O)O)NC(=O)[C@H](Cc1ccc(O)cc1)NC(=O)[C@H](CC(=O)O)NC(=O)CNC(=O)[C@H]1CSSC[C@@H](NC(=O)CNC(=O)[C@@H]2CCCN2C(=O)[C@H](CCCNC(=N)N)NC(=O)[C@@H]2CCCN2C(=O)[C@H](N)Cc2ccccc2)C(=O)NCC(=O)N[C@@H](CCCNC(=N)N)C(=O)NCC(=O)N[C@@H](CC(=O)O)C(=O)N[C@@H](Cc2ccccc2)C(=O)N2CCC[C@H]2C(=O)N1)C(=O)N1CCC[C@H]1C(=O)N[C@@H](CCC(=O)O)C(=O)N[C@@H](CCC(=O)O)C(=O)N[C@@H](C)C(=O)N[C@@H](CC1CCCCC1)C(=O)N[C@H](CCC(=O)O)C(=O)O` [Peptide 2, fPRPGcGRGDFPcGDYEPIPEEA(Cha)e] (H-[dF]PRPG[dC]GRGDFP[dC]GDYEPIPEEA[Cha][dE]-OH; disulfide 6-13), the IC50 is about 19 µM with human platelets [1] (3 h) and 0.06 ± 0.026 µM with human platelets [2] (3 h).

These data come from patent US5681925A, “Trifunctional antithrombin and antiplatelet peptides” (priority 1995, dated 1997).
